pIC50: −log10 of the molar value.
What was measured:
HCT116 = assay: CellTiter Glo cell viability; assay type: cell-based; settings: Homo sapiens, HCT-116, treatment up to 50 μM for seventy-two hours
Experimental: (§1) Measurement of cell viability. Cells were seeded at a density of 3×10^3 cells per well in a 96-well plate (Greiner Bio-One, Monroe, NC, USA). Cell viability was assessed using the CellTiter Glo assay (Promega, Madison, WI, USA). Cells were mixed with 25 μL of CellTiter-Glo reagents in 100 μL of culture volume, and bioluminescence imaging was measured using the Xenogen IVIS imager (Caliper Life Sciences, Waltham, MA). The percent of cell viability was determined by normalizing the luminescence signal to control wells. Dose-response curves were generated, and the half-maximal inhibitory concentration (IC50) was calculated using Graph-Pad Prism (RRID: SCR_002798) version 9.2.0. For IC50 generation, concentrations were log-transformed, and data were then normalized to control, and a log (inhibitor) versus response (three parameters) test was used. A panel of human colorectal cell lines was chosen to provide a varied mutational background (TP53, KRAS, BRAF, TRK, APC, PIK3CA). Cells were treated with elraglusib at doses up to 50 μM for seventy-two hours to determine IC10, IC30, IC50, and IC70. Cytokine, chemokine, and growth factor levels were analyzed in the tumor cell culture supernatants after treatment at IC10, IC30, IC50, and IC70 for forty-eight hours using a Luminex 200 multiplexing instrument. Co-culture experiments were conducted with GFP+ SW480 colorectal cancer cells and either NK-92 natural killer cells or TALL-104 T cells at various effector/target ratios in a 48-well plate, in the presence or absence of elraglusib. The inventors performed cell titer glo analysis to determine IC doses after treatment up to 50 μM for seventy-two hours. See TABLE below of IC50 values for the three cell lines.

HT29 = assay: CellTiter Glo cell viability; assay type: cell-based; settings: Homo sapiens, HT-29, treatment up to 50 μM for seventy-two hours
Experimental: as §1

KM12C = assay: CellTiter Glo cell viability; assay type: cell-based; settings: Homo sapiens, treatment up to 50 μM for seventy-two hours
Experimental: as §1

MSS cell line CT-26 = assay: syngeneic murine colon carcinoma BALB/c model, survival and tumor response; assay type: in vivo, mouse
Experimental: In vivo studies. […] Once tumor volume reached at least 100 mm^3, mice were randomly assigned to one of seven groups (12 mice/group): Control (isotype), elraglusib, elraglusib+Isotype, anti-PD-1, anti-PD-L1, elraglusib+anti-PD-1, and elraglusib+anti-PD-L1. All treatments were delivered by IP injection using the following dosing schedule: Isotype (70 mg/kg, twice a week), elraglusib (70 mg/kg, twice a week), anti-PD-1 (10 mg/kg, twice a week), anti-PD-L1 (10 mg/kg, twice a week). Treatment dosing was determined based on previous studies of elraglusib and anti-PD-1/anti-PD-L1. […] The treatment continued until mice developed signs of discomfort from excessive tumor growth. Mice were weighed once a week to monitor signs of drug toxicity. The length (L) and width (W) of the masses were measured three times per week with a digital caliper, and the tumor volume was calculated by applying the formula: 0.5LW2 Collection of whole blood and serum was performed by cardiac puncture and sent to Antech Diagnostics GLP (Morrisville, NC, USA) for blood cell count and chemistry tests, or in-house cytokine profiling. Tumors and organs were dissected and harvested for analysis by immunohistochemistry and flow cytometry.
In a syngeneic murine colon carcinoma BALB/c model using microsatellite stable cell line CT-26, the inventors compared isotype, elraglusib (70 mg/kg 2×/week), αPD-1 (10 mg/kg 2×/week), αPD-L1 (10 mg/kg 2×/week), elraglusib+αPD-1, and elraglusib+αPD-L1 treatment groups.
The inventors evaluated the potential for elraglusib to increase the efficacy of immune checkpoint blockade and utilized a syngeneic murine colon carcinoma BALB/c murine model using a MSS cell line CT-26 (FIG. 4A). Mice were randomly assigned to one of seven groups: isotype (N=12), elraglusib (N=12), elraglusib+isotype (N=12), anti-PD-1 (N=12), anti-PD-L1 (N=12), elraglusib+anti-PD-1 (N=12), and elraglusib+ anti-PD-L1 (N=12).

NK-92 = assay: microarray analysis; assay type: cell-based, human; settings: 1 μM, 24 hours, vs untreated
Experimental: (§2) Microarrays. A total of 0.5×10^6 tumor cells (HCT-116, HT-29, KM12C) were plated in a 6-well plate and allowed to adhere overnight before 24-hour treatment, as indicated. Then, 1×10^6 immune cells (NK92, TALL-104) were plated and treated with elraglusib as indicated for twenty-four h. RNA was isolated from cell pellets in batches of six using a RNeasy Plus Mini Kit (Cat #74134, Qiagen, Hilden, Germany). Acceptable RNA concentration and quality were verified with Nanodrop and Bioanalyzer measurements. GeneChip™ Human Transcriptome Array 2.0 assays were conducted according to manufacturer instructions in two batches using randomized samples to limit batch effects (Cat #902162, Applied Biosystems, Waltham, MA, USA). Applied Biosystems Transcriptomic Analysis Console (TAC) software (RRID: SCR_016519) was used to calculate fold changes in gene expression relative to the untreated control cells. Values were considered statistically significant for p values<0.05.
(§3) Microarray analysis was used to obtain insights into gene expression changes in immune cell lines post-GSK-3 inhibition with elraglusib. Immune cell lines (TALL-104, NK-92) were treated with elraglusib at IC50 concentrations or DMSO as vehicle control for twenty-four hours and treated versus untreated samples were compared in triplicate using microarray analysis. FIG. 11. Results were calculated using a fold-change (FC) cutoff of >1.5, <−1.5, and a minimum p-value of <0.05. NK-92 cells had sixty-one differentially expressed genes post-treatment (FIG. 3D). the inventors observed an increase in genes that promote immune cell proliferation (TNFSF14, RAB38) and control immune cell adhesion and migration (WNK1) post-elraglusib treatment.
TABLE 11 description. NK-92 immune cell microarray analysis. NK-92 immune cells were treated with 1 μM elraglusib for 24 hours and treated versus untreated control samples were compared in triplicate via microarray analysis (N=3).

TALL-104 = assay: microarray analysis; assay type: cell-based, human; settings: 1 μM, 24 hours, vs untreated
Experimental: as §2, §3
TABLE 12 description. TALL-104 immune cell microarray analysis. TALL-104 immune cells were treated with 1 μM elraglusib for 24 hours and treated versus untreated control samples were compared in triplicate via microarray analysis (N=3). Table showing differentially expressed genes of interest with their corresponding fold changes, p values, descriptions, and functions. Genes are ordered by fold change and were calculated using a fold change cutoff of >1.5, <−1.5, and a minimum p value of <0.05.

[1] = system: adult T-cell leukemia/lymphoma (ATLL); assay: case of refractory ATLL treated in clinical trial NCT03678883; assay type: in vivo, human
Text: This EXAMPLE discloses a case of adult T-cell leukemia/lymphoma (ATLL) treated with elraglusib. A patient developed diffuse lymphadenopathy. […] CSF was positive for ATLL involvement. Twenty-two months after the diagnosis of ATLL was confirmed, as a fourth-line therapy in the presence of actively progressing disease, the patient was enrolled a Phase I/II study investigating the safety and efficacy of elraglusib, a selective small molecule inhibitor of glycogen synthase kinase-3 beta (GSK-3β) as monotherapy or in combination with chemotherapy in refractory solid tumors and hematological malignancies (NCT03678883). The patient started treatment with single-agent elraglusib (12.37 mg/kg IV twice weekly: 21-day cycle). […] This stability was confirmed on CT imaging after five and seven cycles of therapy.

SW480 = assay: multicolor co-culture of SW480 and donor-derived CD8+ T cells; settings: co-culture with donor-derived CD8+ T cells, 24 hours, normalized
Experimental: Isolation of donor-derived CD8+ T cells. An Easy Step Human CD8+ T Cell Isolation Kit was used to isolate CD8+ T cells from a donor PBMC sample via negative selection (Cat #, 17913, Stem Cell Technologies, Vancouver, Canada).
Multicolor immune cell co-culture experiments. A total of 10,000 HCT-116, SW480, or HT-29 colorectal cancer cells were plated per well in a clear-bottom, black-walled 48-well tissue culture plate and were allowed to adhere overnight. Cells were subsequently treated with DMSO, 5 μM or 10 μM elraglusib, or 10,000 TALL-104, donor-derived CD8+ T cells, or NK-92 cells (for an effector-to-tumor ratio of 1:1) for twenty-four hours. Immune cell monocultures were treated with DMSO, 5 μM or 10 μM elraglusib and cell viability was monitored to ensure that the concentrations of drug used were not cytotoxic to immune cells. […] 10× images were captured using a Nikon Ti-U Inverted Fluorescence Microscope and NIS-Elements F Package imaging software 3.22.00 Build 710 (Nikon Instruments Inc., New York, NY, USA). The number of red/green color cells in random fields was determined using thresholding and particle analysis in the Fiji modification (RRID: SCR_002285) of ImageJ and expressed as a dead/live cell ratio. […] At least one hundred cells were evaluated per sample, with three independent replicates. […]

Cn1cc(C2=C(c3coc4ccc(F)cc34)C(=O)NC2=O)c2cc3c(cc21)OCO3 [elraglusib]
pIC50 (HCT116): 6.43
pIC50 (HT29): 6.39
pIC50 (KM12C): 6.70
survival compared to the control (MSS cell line CT-26; N=12 per group): statistically significant improved survival
hazard ratio for death (HR) (MSS cell line CT-26; compared to isotype control group): 0.12
median overall survival (MSS cell line CT-26; elraglusib 70 mg/kg 2×/week, αPD-1/αPD-L1 10 mg/kg 2×/week, isotype control group 16 d): 19 days
ITGB8 Fold Change (NK-92): −1.53
MIR186 Fold Change (NK-92): −1.52
NAP1L1 Fold Change (NK-92): −1.51
RAB38 Fold Change (NK-92): 1.65
RNY5 Fold Change (NK-92): 3.32
S100A12 Fold Change (NK-92): −1.78
TNFSF14 Fold Change (NK-92): 1.5
WNK1 Fold Change (NK-92): 1.5
ACVR1B Fold Change (TALL-104): −1.61
BCL2A1 Fold Change (TALL-104): 1.63
CAMK1D Fold Change (TALL-104): −2.5
CCL3 Fold Change (TALL-104): 1.52
CCR8 Fold Change (TALL-104): −2.14
CD84 Fold Change (TALL-104): −1.53
CKS1B Fold Change (TALL-104): 1.6
DUSP6 Fold Change (TALL-104): −1.66
HSPA1A Fold Change (TALL-104): −1.63
KIF7 Fold Change (TALL-104): 1.56
ORAI3 Fold Change (TALL-104): 1.51
PPARA Fold Change (TALL-104): −1.54
PTPN3 Fold Change (TALL-104): −1.56
PTPN14 Fold Change (TALL-104): −1.62
RNY4 Fold Change (TALL-104): 2.19
RNY5 Fold Change (TALL-104): 1.66
STX19 Fold Change (TALL-104): 1.58
UBE3A Fold Change (TALL-104): −1.73
VAMP8 Fold Change (TALL-104): 1.56
tolerability ([1]; 12.37 mg/kg IV twice weekly): tolerated the treatment well without significant adverse effects
sIL-2 r serum concentration ([1]; after nineteen cycles of treatment, 9,043 ng/ml one month before treatment): 2,094 ng/ml
CT imaging response by RECIST Criteria ([1]; after ten cycles (seven months), 12.37 mg/kg IV twice weekly): partial response
CT imaging response ([1]; after two cycles, 12.37 mg/kg IV twice weekly, 21-day cycle): stable disease
duration of sustained reduction of peripheral blood ATLL cells ([1]; elraglusib monotherapy): fifteen
dead cells out of total cells (SW480; 5 μM): 65%
dead cells out of total cells (SW480; 10 μM): 75%

— patent US20240041830A1, “CIRCULATING BIOMARKERS OF RESPONSE TO PD-1/PD-L1 BLOCKADE AND GSK-3 INHIBITION” (Brown University, priority 2022, published 2024)
